Measurements taken from patent publication US7892755B2, “Screening method” (Takeda Pharmaceutical Company Limited, priority 2004, dated 2011).

Legend:
human TGR23 = target: T1, human TGR23 (Homo sapiens, UniProt Q6W5P4); experiment: MAPK phosphorylation in control cells (human TGR23-expressed CHO cells); assay type: cell-based
T1 construct: expressed in transfected cells; host or cells: CHO cells
T1 sequence (Q6W5P4 1-371): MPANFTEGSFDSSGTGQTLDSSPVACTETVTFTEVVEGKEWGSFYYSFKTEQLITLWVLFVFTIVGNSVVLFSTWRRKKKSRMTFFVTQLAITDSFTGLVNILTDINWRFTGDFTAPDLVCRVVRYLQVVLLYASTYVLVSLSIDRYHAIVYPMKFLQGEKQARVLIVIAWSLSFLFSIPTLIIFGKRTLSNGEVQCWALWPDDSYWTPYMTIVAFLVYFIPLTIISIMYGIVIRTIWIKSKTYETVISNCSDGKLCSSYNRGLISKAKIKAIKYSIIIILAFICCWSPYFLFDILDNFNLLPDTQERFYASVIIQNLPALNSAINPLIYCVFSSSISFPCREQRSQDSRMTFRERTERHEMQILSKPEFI

mouse GPR35 = target: T2, mouse GPR35 (Mus musculus, UniProt Q9ES90, D300Y/S286F); experiment: Reactivity on FLIPR, CHO-K1 cells transfected with mouse GPR35 expression vector; assay type: cell-based
T2 construct: the digestion product was inserted into plasmid vector pAKKO-111H; expressed in transfected cells; host or cells: CHO-K1 cells
T2 sequence (Q9ES90 whole entry S286F/D300Y): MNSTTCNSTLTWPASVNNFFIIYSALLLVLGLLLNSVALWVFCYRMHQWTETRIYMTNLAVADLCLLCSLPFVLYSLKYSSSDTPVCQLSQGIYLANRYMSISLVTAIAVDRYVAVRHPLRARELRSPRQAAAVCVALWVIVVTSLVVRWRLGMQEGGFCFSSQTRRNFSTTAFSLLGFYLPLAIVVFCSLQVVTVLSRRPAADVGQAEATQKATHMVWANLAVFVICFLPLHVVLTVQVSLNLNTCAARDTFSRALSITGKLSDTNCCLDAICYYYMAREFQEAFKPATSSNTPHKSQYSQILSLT
Procedure: The CHO-K1 cell line (purchased from ATCC) was incubated in HAM F-12 medium (Invitrogen) supplemented with 10% fetal calf serum, unless otherwise indicated. On the day before transfection, the cells were inoculated at 4.5×10^5/10 cm^2 and incubated at 37° C. for 15 hours or more in a CO2 incubator adjusted to 5% CO2 concentration. Using Lipofectamine reagent (Invitrogen), transfection was performed according to modifications of the procedure attached to the reagent. When a 6-well plate was used as the incubator, the transfection was performed as follows. Two tubes each having a 1.5 ml volume were prepared and 100 μl each of Opti-MEM medium (Invitrogen) was dispensed in each tube. […] The cells obtained were counted and diluted to 5×10^4 cells per 100 μl of the medium. […]
To assay the changes in intracellular calcium levels on FLIPR, the following pretreatment was made. First, an assay buffer was prepared to add fluorescence dye Fluo-3AM (DOJIN) to the cells, or to wash the cells immediately before the FLIPR assay. […] After mixing them, the mixture was added to 10.6 ml of an assay buffer supplemented with 105 μl of fetal calf serum to give a fluorescence dye solution. […]

Structure (SMILES) | level of phosphorylated MAP-kinase in control cells (human TGR23) | reactivity of mouse GPR35 (FLIPR) (mouse GPR35)
O=C1N=c2cc([N+](=O)[O-])c([N+](=O)[O-])cc2=NC1=O [DNQX, 6,7-dinitroquinoxaline-2,3-dione] | any enhanced level of phosphorylation was not observed | responsive
NS(=O)(=O)c1cccc2c3c(cc([N+](=O)[O-])c12)=NC(=O)C(=O)N=3 [NBQX, 6-nitro-7-sulfamoylbenzo[f]quinoxaline-2,3-dione] | any enhanced level of phosphorylation was not observed | –
